For series [1], the system named is epithelial cell proliferation. Conditions: cited from earlier work.
The nature of series [2]: solubility in organic solvents. Conditions: alcohol, acetone, ethyl acetate or methanol. The format is physicochemical.
The subject of series [3] is HDL-C levels. Conditions: administration of PI, humans; cited from earlier work.

Here are results for three substances from patent publication US7825270B2, “Inositolphospholipids and analogues: phosphatidylinositol products and processes” (Nutrimed Biotech, priority 2005, dated 2010).

Regarding “D-myo-inositol 4-(hexadecyloxy)-3(S)methoxy-butane-phosphonate”, the “inhibition of epithelial cell proliferation” value in series [1] is recorded as “inhibit epithelial cell proliferation”.

Consider “Soy PI-2,3,4,5,6-penta-O-tetrahydropyranyl ether”, for which the solubility in solvents result in series [2] was “dissolved easily”.

Regarding phosphatidylinositol [PI], the “effect on HDL-C levels” value in series [3] is reported as “raises HDL-C levels”.
